Tests used:
[1] = Vasodilation activity in rabbit aortic rings assessed as relaxation of 3 uM methoxamine-induced contraction in absence of guanylate cyclase inhibitor 1H-[1,2,4]oxadiazolo[4,3-a]quinoxalin-1-one; assay type: functional, tissue-based; conditions: Oryctolagus cuniculus, Aorta
[2] = Vasodilation activity in rabbit aortic rings assessed as relaxation of 3 uM methoxamine-induced contraction in presence of 10 uM guanylate cyclase inhibitor 1H-[1,2,4]oxadiazolo[4,3-a]quinoxalin-1-one; assay type: functional, tissue-based; conditions: Oryctolagus cuniculus, Aorta
[3] = Chemical stability in pH 5.7 buffer at room temperature after 1 day; assay type: physicochemical; conditions: for remaining at 24 h: pH 5.7 buffer, pH 5.7, read-out: Stability
[4] = Chemical stability in pH 5.7 buffer at room temperature after 1 week; assay type: physicochemical; conditions: read-out: Stability
[5] = Stability in rabbit corneal homogenate at 37 degC assessed as half life of timolol release; assay type: ADME, tissue-based, Oryctolagus cuniculus, Cornea; conditions: in vitro
[6] = Chemical stability in pH 5.7 buffer at room temperature after 4 weeks; assay type: physicochemical; conditions: read-out: Stability
[7] = Chemical stability in pH 5.7 buffer at room temperature after 8 weeks; assay type: physicochemical; conditions: read-out: Stability
[8] = Chemical stability in pH 5.7 buffer at room temperature after 12 weeks; assay type: physicochemical; conditions: read-out: Stability

SMILES	EC50 [1]	EC50 [2]	remaining at 24 h [3]	remaining at 168 h [4]	t1/2 [5]	remaining at 672 h [6]	remaining at 1344 h [7]	remaining at 2016 h [8]	Stability ([3]; buffer, pH 5.7, 24 h)
CC(C)(C)NC[C@H](O)COc1nsnc1N1CCOCC1 [TIMOLOL]	28.8 µM	36.5 µM	–	–	–	–	–	–	–
COc1cc(COCCO[N+](=O)[O-])ccc1C(=O)O[C@@H](CNC(C)(C)C)COc1nsnc1N1CCOCC1	–	–	96.7%	94.9%	–	–	–	–	–
CC(C)(C)NC[C@@H](COc1nsnc1N1CCOCC1)OC(=O)c1ccccc1OCCO[N+](=O)[O-].O=C(O)/C=C\C(=O)O	–	–	96.5%	82.5%	4.3 h	–	–	–	–
COc1cc(COC(=O)CCCO[N+](=O)[O-])c(C(=O)O[C@@H](CNC(C)(C)C)COc2nsnc2N2CCOCC2)c(OC)c1.O=C(O)/C=C\C(=O)O	–	–	96.5%	96.5%	0.2 h	90.6%	–	–	–
CC(C)(C)NC[C@@H](COc1nsnc1N1CCOCC1)OC(=O)c1ccccc1	–	–	96%	74.8%	–	–	–	–	–
COc1cc(COC(=O)COCCOCCO[N+](=O)[O-])c(C(=O)O[C@@H](CNC(C)(C)C)COc2nsnc2N2CCOCC2)c(OC)c1.O=C(O)/C=C\C(=O)O	15.5 µM	32.7 µM	98.8%	93%	0.167 h	–	–	–	–
COc1cc(COC(=O)C(C)(C)CO[N+](=O)[O-])c(C(=O)O[C@@H](CNC(C)(C)C)COc2nsnc2N2CCOCC2)c(OC)c1.O=C(O)/C=C\C(=O)O	–	–	98.4%	99.1%	2 h	94.7%	94.9%	93.2%	–
COc1cccc(C(=O)O[C@@H](CNC(C)(C)C)COc2nsnc2N2CCOCC2)c1OCCO[N+](=O)[O-].O=C(O)/C=C\C(=O)O	–	–	96%	72.1%	> 23.33 h	–	–	–	–
COc1ccc(CO[N+](=O)[O-])cc1C(=O)O[C@@H](CNC(C)(C)C)COc1nsnc1N1CCOCC1.O=C(O)/C=C\C(=O)O	–	–	–	–	4.62 h	–	–	–	Unstable
COc1cccc(OCCO[N+](=O)[O-])c1C(=O)O[C@@H](CNC(C)(C)C)COc1nsnc1N1CCOCC1.O=C(O)/C=C\C(=O)O	–	–	99.8%	99.3%	> 23.33 h	98.3%	98.3%	98.3%	–
CC(C)(C)NC[C@@H](COc1nsnc1N1CCOCC1)OC(=O)c1ccc(OCCO[N+](=O)[O-])cc1OCCO[N+](=O)[O-]	–	–	97.9%	84.2%	–	–	–	–	–
COc1cc(COC(=O)CCCCCO[N+](=O)[O-])c(C(=O)O[C@@H](CNC(C)(C)C)COc2nsnc2N2CCOCC2)c(OC)c1.O=C(O)/C=C\C(=O)O	6.7 µM	56.3 µM	99.6%	99.6%	0.167 h	97.7%	92.8%	–	–
COc1cc(OCCO[N+](=O)[O-])cc(C)c1C(=O)O[C@@H](CNC(C)(C)C)COc1nsnc1N1CCOCC1.O=C(O)/C=C\C(=O)O	–	–	101%	101%	> 23.33 h	100%	99.6%	98.5%	–
COc1cc(COC(=O)CCOCC(CO[N+](=O)[O-])O[N+](=O)[O-])c(C(=O)O[C@@H](CNC(C)(C)C)COc2nsnc2N2CCOCC2)c(OC)c1.O=C(O)/C=C\C(=O)O (some centres not stated)	–	–	97.3%	96.7%	0.667 h	95.8%	91.7%	86%	–
O=[N+]([O-])O[C@@H]1CO[C@H]2[C@@H]1OC[C@@H]2O [ISOSORBIDE MONONITRATE]	9.6 µM	> 100 µM	–	–	–	–	–	–	–
COc1cc(COC(=O)CCCCCO[N+](=O)[O-])cc(OC)c1C(=O)O[C@@H](CNC(C)(C)C)COc1nsnc1N1CCOCC1.O=C(O)/C=C\C(=O)O	–	–	100%	100%	> 23.33 h	98%	96.8%	93.2%	–
COc1cc(OCCO[N+](=O)[O-])ccc1C(=O)O[C@@H](CNC(C)(C)C)COc1nsnc1N1CCOCC1	–	–	98.6%	96.3%	–	84.4%	–	–	–
